The values that follow come from patent US20250120417A1, “FEED ADDITIVE COMPOSITIONS AND METHODS FOR USING THE SAME” (INT[…]&H DENMARK APS, priority 2021, published 2025).

One assay deals with NetB toxin. It counts as cell-based, Clostridium perfringens strain 25037-CP01.
Another assay has as its system HT-29 cells. It counts as cell-based, human.
The next assay deals with netB gene. Format: cell-based, Clostridium perfringens.

As for `N[C@@H](CC(=O)O)C(=O)O` [aspartic acid], the “level of extracellular NetB toxin secreted into the media” value (“level” for short) in the assay with NetB toxin was “lower the level”. In the assay with HT-29 cells, the HT29 cell death entry is on record as “less than 10%”. Besides, in the assay on netB gene, the “netB expression / toxin producing population in single cell data” value is on record as “marked reduction”.

In the case of `N=C(N)NCCC[C@H](N)C(=O)O` [arginine], in the assay on netB gene, the “netB expression / toxin producing population in single cell data” value is “small reduction”.

For `NCCC[C@H](N)C(=O)O` [ornithine], in the assay with netB gene, the “netB expression / toxin producing population in single cell data” value is “small reduction”.

With `CC(=O)[O-].[Na+]` [sodium acetate], the “level” value in the assay with NetB toxin was “reduced”.

For the compound `Cc1ncc(CO)c(CO)c1O.Cl` [Vitamin B6], the “level” value in the assay with NetB toxin is “reduced”.

With `Cc1ncc(C[n+]2csc(CCO)c2C)c(N)n1` [Vitamin B1], the “level” value in the assay on NetB toxin is given as “reduced”.

For the compound Vitamin B12, the “level” value in the assay with NetB toxin was “reduced”.

As for ammonium phosphate, in the assay with NetB toxin, the “level” value was “reduced”.
